Laboratory results published in ChEMBL document CHEMBL5465560, “Selectivity Literature for EUbOPEN Chemogenomic Library” (2024).

Assays:
[1] = molecular target: Receptor tyrosine-protein kinase erbB-4 (Homo sapiens, UniProt Q15303); test: Selectivity interaction (Radiometric kinase assay (using 10 uM ATP)) EUB0000601a ERBB4
[2] = molecular target: T1, Myotonin-protein kinase (Homo sapiens) (UniProt Q09013); details: at 10 µM
T1 sequence (whole entry): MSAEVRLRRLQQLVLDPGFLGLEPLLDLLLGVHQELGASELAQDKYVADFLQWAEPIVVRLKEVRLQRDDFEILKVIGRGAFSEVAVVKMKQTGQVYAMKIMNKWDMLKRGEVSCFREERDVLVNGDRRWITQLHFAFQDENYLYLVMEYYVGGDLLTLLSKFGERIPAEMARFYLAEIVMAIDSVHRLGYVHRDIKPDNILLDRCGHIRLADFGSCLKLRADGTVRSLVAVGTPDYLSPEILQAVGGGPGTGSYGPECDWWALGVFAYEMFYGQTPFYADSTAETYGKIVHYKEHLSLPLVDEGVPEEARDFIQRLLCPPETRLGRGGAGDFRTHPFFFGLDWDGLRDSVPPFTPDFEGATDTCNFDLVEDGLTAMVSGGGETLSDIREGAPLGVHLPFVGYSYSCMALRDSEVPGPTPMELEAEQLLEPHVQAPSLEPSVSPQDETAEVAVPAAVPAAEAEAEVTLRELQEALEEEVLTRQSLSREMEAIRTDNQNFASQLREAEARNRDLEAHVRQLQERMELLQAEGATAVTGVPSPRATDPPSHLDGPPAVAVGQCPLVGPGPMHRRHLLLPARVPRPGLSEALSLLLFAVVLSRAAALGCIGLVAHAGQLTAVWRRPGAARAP

[3] = molecular target: Myosin light chain kinase 2, skeletal/cardiac muscle (Homo sapiens) (UniProt Q9H1R3); details: at 10 µM
[4] = molecular target: Histone-lysine N-methyltransferase, H3 lysine-79 specific (Homo sapiens, UniProt Q8TEK3); test: Selectivity interaction (Methyltransferase screen (radiometric assays, panel of 8 PRMTs, 21 protein lysine methyltransferases, 3 DNA methyltransferases, and one RNA methyltransferase)) EUB0000272b DOT1L
[5] = test system: Epidermal growth factor receptor (Homo sapiens), P00533 [UNDEFINED MUTATION]; test: Selectivity interaction (KinomeScan (DiscoverX)) EUB0000045b EGFR; details: at 10 µM
[6] = molecular target: Myosin light chain kinase, smooth muscle (Homo sapiens, UniProt Q15746); test: Selectivity interaction (KinomeScan (DiscoverX)) EUB0000045b MYLK
[7] = molecular target: T2, Tyrosine-protein kinase ZAP-70 (Homo sapiens, UniProt P43403); test: Selectivity interaction (Kinase panel (enzymatic assay)) EUB0000595a ZAP70
T2 sequence (P43403 whole entry): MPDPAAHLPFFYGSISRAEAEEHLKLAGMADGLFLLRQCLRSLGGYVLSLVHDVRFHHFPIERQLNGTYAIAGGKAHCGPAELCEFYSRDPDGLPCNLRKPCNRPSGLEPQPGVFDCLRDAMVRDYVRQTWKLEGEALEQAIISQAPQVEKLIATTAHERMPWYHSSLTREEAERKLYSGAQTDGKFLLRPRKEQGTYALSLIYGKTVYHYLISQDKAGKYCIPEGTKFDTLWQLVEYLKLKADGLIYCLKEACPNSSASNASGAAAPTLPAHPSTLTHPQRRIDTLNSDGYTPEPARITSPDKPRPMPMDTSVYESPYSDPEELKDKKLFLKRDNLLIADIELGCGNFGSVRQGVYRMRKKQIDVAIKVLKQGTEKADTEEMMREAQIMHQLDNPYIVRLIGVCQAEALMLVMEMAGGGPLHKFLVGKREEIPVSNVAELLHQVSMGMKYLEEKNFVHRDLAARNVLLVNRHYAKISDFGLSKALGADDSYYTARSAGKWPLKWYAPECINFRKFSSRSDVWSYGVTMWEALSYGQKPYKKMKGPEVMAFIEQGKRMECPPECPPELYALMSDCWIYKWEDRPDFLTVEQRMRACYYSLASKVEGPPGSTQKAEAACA

[8] = molecular target: Interleukin-1 receptor-associated kinase 1 (Homo sapiens) (UniProt P51617); test: Selectivity interaction (Kinase panel (KiNativ target engagement assay in Jurkat cells)) EUB0001635a IRAK1; assay type: cell-based; details: Selectivity number of off-targets 0.0, Selectivity number of targets 233.0, Source Knowledge https://www.sciencedirect.com/science/article/pii/S2451945619300674?via%3Dihub, at 1 µM
[9] = molecular target: T3, Dual specificity mitogen-activated protein kinase kinase 4 (Homo sapiens) (UniProt P45985); test: Selectivity interaction (ActivX KiNativ screen (kinase selectivity in THP-1 cell lysates)) EUB0000639a MAP2K4; assay type: subcellular; details: lysate, at 1 µM
T3 sequence (whole entry): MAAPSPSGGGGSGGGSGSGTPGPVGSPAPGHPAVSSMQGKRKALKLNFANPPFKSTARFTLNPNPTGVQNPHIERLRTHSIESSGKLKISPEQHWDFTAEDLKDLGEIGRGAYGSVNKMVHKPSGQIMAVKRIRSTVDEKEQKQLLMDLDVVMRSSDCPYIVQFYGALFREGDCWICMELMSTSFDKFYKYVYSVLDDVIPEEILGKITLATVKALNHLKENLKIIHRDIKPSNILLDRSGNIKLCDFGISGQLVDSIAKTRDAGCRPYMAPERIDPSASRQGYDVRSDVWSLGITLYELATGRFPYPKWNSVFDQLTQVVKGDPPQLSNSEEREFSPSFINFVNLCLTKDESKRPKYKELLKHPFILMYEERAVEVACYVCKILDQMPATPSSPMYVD

[10] = molecular target: Tyrosine-protein kinase Lyn (Homo sapiens, UniProt P07948); test: Selectivity interaction (KinomeScan (DiscoverX)) EUB0000229b LYN; details: at 10 µM
[11] = molecular target: MAP kinase-interacting serine/threonine-protein kinase 1 (Homo sapiens) (UniProt Q9BUB5); test: Selectivity interaction (KinomeScan (DiscoverX)) EUB0001049a MKNK1; details: at 1 µM
[12] = molecular target: Fibroblast growth factor receptor 3 (Homo sapiens, UniProt P22607); test: (§1) Selectivity interaction (KinomeScan (DiscoverX)) EUB0000666a FGFR3; details: at 10 µM
[13] = test system: Fibroblast growth factor receptor 3 (Homo sapiens), P22607 [G697C]; test: as §1; details: at 10 µM
Sequence of Fibroblast growth factor receptor 3 (Homo sapiens), P22607 [G697C] (P22607 whole entry G697C): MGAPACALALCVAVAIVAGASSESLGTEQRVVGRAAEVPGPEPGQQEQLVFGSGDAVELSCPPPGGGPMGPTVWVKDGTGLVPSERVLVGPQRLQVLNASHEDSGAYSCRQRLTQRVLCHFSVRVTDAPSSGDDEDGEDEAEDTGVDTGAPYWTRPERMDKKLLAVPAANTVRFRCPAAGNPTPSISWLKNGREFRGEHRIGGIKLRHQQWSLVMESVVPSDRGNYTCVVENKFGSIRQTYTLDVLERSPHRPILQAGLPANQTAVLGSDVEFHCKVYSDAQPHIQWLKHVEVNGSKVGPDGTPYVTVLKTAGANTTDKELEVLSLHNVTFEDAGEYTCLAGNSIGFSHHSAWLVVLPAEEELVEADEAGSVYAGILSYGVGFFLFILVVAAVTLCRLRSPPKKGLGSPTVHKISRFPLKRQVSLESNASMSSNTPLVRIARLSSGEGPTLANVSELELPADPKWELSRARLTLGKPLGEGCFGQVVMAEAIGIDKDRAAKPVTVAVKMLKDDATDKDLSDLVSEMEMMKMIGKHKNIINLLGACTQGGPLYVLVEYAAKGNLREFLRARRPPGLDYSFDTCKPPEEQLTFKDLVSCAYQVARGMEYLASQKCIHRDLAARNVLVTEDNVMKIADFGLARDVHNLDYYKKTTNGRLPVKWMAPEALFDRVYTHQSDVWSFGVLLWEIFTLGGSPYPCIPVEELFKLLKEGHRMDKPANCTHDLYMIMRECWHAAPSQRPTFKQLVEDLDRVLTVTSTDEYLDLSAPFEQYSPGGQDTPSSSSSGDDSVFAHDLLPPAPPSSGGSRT

Sequence of Histone-lysine N-methyltransferase, H3 lysine-79 specific (Q8TEK3 whole entry, looked up): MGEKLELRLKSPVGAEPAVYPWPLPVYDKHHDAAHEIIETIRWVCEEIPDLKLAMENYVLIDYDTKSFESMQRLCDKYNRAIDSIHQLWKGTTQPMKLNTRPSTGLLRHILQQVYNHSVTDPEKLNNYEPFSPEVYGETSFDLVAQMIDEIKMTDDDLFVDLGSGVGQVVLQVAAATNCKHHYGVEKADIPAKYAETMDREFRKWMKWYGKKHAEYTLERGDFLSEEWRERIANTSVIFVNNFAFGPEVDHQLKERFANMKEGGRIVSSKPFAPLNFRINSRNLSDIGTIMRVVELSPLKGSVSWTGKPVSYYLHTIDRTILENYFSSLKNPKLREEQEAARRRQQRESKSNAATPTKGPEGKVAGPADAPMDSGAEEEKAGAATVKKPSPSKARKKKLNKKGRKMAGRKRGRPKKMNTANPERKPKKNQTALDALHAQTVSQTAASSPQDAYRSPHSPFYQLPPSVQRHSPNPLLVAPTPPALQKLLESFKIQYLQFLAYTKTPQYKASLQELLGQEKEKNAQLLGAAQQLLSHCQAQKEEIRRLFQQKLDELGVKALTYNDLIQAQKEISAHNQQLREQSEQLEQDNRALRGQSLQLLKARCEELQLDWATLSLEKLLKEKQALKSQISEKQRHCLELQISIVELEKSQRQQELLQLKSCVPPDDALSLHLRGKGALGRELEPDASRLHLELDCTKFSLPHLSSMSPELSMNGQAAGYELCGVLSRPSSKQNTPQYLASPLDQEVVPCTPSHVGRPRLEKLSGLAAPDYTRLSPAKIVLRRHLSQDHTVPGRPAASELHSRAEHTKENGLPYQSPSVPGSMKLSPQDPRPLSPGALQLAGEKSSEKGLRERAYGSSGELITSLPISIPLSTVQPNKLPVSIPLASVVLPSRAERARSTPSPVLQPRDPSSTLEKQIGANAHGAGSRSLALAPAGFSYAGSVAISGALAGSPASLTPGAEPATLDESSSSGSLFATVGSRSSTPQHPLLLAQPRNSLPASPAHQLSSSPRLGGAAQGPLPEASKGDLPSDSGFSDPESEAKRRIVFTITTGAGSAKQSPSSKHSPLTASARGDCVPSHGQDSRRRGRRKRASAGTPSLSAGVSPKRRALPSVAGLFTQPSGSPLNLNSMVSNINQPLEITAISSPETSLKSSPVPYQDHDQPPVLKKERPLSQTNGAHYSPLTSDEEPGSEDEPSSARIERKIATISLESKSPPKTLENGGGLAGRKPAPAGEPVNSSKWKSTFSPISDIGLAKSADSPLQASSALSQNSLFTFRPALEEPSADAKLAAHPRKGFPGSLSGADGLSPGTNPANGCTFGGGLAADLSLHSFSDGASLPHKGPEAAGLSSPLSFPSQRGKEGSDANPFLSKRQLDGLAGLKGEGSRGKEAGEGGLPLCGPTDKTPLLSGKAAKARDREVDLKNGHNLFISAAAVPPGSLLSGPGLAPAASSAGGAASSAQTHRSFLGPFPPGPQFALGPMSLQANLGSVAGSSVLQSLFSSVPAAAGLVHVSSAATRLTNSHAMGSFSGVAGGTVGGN
Sequence of Myosin light chain kinase, smooth muscle (Q15746 whole entry): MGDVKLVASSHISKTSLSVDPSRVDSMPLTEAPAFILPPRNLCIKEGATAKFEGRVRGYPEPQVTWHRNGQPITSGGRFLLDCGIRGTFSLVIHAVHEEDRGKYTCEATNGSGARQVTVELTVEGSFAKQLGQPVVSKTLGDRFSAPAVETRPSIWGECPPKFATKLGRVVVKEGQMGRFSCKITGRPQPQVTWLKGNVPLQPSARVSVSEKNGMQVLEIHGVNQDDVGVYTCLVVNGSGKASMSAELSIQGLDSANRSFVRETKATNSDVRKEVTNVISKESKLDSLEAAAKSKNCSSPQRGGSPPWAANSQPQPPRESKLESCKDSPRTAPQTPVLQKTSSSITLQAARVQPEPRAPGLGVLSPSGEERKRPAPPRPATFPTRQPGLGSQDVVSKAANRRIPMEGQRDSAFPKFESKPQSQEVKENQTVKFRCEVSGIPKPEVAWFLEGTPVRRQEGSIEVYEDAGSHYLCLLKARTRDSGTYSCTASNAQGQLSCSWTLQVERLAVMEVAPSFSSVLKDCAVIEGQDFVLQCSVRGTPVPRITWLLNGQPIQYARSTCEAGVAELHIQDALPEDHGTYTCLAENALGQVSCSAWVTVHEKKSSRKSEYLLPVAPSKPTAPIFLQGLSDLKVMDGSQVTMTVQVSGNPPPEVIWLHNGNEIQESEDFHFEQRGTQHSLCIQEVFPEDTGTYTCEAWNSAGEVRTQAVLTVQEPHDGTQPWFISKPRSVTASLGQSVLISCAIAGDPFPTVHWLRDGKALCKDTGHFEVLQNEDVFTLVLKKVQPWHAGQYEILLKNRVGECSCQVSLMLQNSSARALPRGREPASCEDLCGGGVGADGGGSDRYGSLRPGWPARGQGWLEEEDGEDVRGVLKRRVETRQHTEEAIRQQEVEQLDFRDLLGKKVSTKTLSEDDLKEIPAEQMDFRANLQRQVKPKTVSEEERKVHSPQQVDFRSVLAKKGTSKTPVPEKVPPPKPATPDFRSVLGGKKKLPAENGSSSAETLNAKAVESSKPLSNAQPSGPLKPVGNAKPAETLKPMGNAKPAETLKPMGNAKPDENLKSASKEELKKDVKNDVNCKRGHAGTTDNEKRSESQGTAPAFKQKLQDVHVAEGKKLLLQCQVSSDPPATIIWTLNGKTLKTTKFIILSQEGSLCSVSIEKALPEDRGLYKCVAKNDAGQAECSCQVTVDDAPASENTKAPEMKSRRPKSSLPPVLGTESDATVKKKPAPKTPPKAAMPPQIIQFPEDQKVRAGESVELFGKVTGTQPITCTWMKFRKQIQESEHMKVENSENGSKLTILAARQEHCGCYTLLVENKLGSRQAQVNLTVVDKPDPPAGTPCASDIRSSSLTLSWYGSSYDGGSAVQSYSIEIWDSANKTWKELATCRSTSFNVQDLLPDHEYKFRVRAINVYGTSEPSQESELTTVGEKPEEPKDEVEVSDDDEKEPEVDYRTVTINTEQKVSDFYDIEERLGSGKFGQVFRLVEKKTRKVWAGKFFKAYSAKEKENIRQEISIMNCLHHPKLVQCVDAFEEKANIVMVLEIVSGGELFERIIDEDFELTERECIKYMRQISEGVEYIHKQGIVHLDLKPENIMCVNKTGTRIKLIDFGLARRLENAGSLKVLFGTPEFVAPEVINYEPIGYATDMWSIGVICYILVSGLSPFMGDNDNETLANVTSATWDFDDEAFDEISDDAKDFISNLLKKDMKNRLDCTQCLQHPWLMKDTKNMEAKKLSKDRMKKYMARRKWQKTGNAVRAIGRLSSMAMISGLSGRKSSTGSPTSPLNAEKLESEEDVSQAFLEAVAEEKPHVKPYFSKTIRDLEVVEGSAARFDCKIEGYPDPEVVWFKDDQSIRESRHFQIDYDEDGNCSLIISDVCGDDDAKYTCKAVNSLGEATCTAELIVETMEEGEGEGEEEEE
Sequence of MAP kinase-interacting serine/threonine-protein kinase 1 (Homo sapiens) (Q9BUB5 whole entry, looked up): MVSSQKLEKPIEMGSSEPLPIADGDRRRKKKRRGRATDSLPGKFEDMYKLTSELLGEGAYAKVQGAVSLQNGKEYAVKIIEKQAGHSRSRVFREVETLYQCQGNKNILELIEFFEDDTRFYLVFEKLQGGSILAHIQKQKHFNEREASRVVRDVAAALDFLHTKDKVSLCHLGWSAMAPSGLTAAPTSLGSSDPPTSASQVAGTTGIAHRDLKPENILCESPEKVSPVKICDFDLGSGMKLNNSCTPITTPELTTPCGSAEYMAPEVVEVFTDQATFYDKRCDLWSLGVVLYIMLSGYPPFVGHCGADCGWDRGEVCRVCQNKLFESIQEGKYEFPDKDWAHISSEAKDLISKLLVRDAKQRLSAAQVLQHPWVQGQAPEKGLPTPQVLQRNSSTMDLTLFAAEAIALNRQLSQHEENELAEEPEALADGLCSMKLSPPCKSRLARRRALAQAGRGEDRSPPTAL

SMILES: CCc1cc(Nc2nccc(-c3c(-c4ccc(OC)c(C(=O)Nc5c(F)cccc5F)c4)nc4ccccn34)n2)c(OC)cc1N1CCC(N2CCN(S(C)(=O)=O)CC2)CC1
- IC50 [1]: > 250 µM

SMILES: CCN(CC)CCCCNc1ncc2cc(-c3cc(OC)cc(OC)c3)c(NC(=O)NC(C)(C)C)nc2n1
- % of control [2]: 100%
- % of control [3]: 100%

SMILES: Cc1cc(C)cc([C@H]2c3cc(C)ccc3NC(=O)CN2C(=O)c2ccc(Br)s2)c1
- % of activity ([4]; at 1 µM): 100%
- % of activity ([4]; at 10 µM): 94.3%

SMILES: C=CC(=O)Nc1cc(-n2c(=O)ccc3cnc4ccc(-c5ccc(NS(C)(=O)=O)cc5)cc4c32)ccc1C
- % of control [5]: 57%
- % of control ([6]; at 1 µM): 90%
- % of control ([6]; at 10 µM): 100%

SMILES: COCC(=O)NC/C=C/c1ccc2ncnc(Nc3ccc(Oc4ccc(C)nc4)c(C)c3)c2c1 [CP-724714]
- IC50 [7]: > 10 µM

SMILES: C=CC(=O)Nc1ccc(C(=O)Nc2[nH]nc3c2CN(C(=O)N[C@H](CN(C)C)c2ccccc2)C3(C)C)cc1
- % of engagement [8]: 1.3%

SMILES: CC[C@@H]1[C@H](F)C(=O)N[C@@H]1COc1nccc2cc(C(N)=O)c(OC)cc12 [ZIMLOVISERTIB]
- % of inhibition [9]: 17.3%

SMILES: COc1cc(N(C)c2ccnc3ccc(C(F)(F)F)cc23)cc(OC)c1OC
- % binding [10]: 96%

SMILES: COc1cc(Nc2nc(C)cc(-c3cnn4nc(OC)ccc34)n2)cc(C(F)(F)F)c1
- % of control [11]: 93%

SMILES: O=C(NOC[C@H](O)CO)c1ccc(F)c(F)c1Nc1ccc(I)cc1F
- % of control [12]: 100%
- % of control [13]: 88%
